Assay results reported in patent publication US10787444B2, “Compounds for the modulation of myc activity” (Syros Pharmaceuticals, Inc., priority 2015, dated 2020).
Counter-ions that a name gives are not always drawn. Like-named read-outs stand apart in the source and are kept apart here. One block for each compound: values may come before it.

Experiments:
[1] = target: T1, c-Myc/Max/Ebox DNA (Homo sapiens, UniProt P01106); assay: c-Myc/Max/Ebox DNA AlphaScreen Assay; type: binding; details: calculated IC50 class
T1 construct: his6 (cleaved yes)
Procedure, shortened: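 Compounds were preincubated with free c-Myc (20 nM), biotinylated single-Ebox DNA (10 nM) and Ni acceptor beads before his6-Max (5 nM) and streptavidin donor beads were added. Buffer was 50 mM HEPES pH 8.0, 150 mM NaCl, BSA, Tween20, glycogen and DTT, with DMSO ≤2%. After 2 h incubation, AlphaScreen signal was read at 680 nm excitation and 520–620 nm emission.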

[2] = system: human small lung cancer cell line H2171; assay: Cell Viability Assay (ATPlite); type: cell-based; details: H2171 cells, three days, ATPlite, calculated IC50 class, read-out: H2171 Activity
Procedure, shortened: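 Viability readout was ATPlite luminescence, taken after 3 days' incubation at 37° C. Human SCLC H2171 cells (20,000 cells/mL) received compound right after plating, as a 10-point dose response.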

[3] = Homo sapiens, NCI-H2171, 72 h, Table 2, compounds of FIG. 1
[4] = Homo sapiens, NCI-H2171, 72 h, Table 3, compounds of FIG. 2

T1 sequence (P01106 whole entry): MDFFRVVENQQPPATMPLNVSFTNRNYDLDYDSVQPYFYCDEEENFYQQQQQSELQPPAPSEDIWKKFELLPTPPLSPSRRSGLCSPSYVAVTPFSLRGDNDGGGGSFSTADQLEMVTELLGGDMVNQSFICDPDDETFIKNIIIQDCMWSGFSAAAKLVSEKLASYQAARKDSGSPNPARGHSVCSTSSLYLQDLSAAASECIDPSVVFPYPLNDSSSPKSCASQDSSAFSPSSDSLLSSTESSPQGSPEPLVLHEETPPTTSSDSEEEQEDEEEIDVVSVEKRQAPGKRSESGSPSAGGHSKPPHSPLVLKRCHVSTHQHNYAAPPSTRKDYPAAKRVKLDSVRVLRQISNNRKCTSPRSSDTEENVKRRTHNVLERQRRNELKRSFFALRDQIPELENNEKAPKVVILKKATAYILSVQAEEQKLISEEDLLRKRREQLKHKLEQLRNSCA

SMILES: CC[C@H](C)NCCC(=O)Nc1sc2c(c1-c1nc3cc(-c4ccncc4)ccc3s1)CCN(C1CCC1)C2 [Compound 595, (S)-3-(sec-butylamino)-N-(6-cyclobutyl-3-(5-(pyridin-4-yl)benzo[d]thiazol-2-yl)-4,5,6,7-tetrahydrothieno[2,3-c]pyridin-2-yl)propanamide]
- IC50 ([1]; Table 2, compounds of FIG. 1): < 300 nM
- IC50 [2, 3]: 300 to 1000 nM

SMILES: CCC(C)NCCC(=O)Nc1sc2c(c1-c1nc3ccccc3s1)CC[N+](C)(C(C)C)C2 (stereo not shown) [Compound 191, 3-(benzo[d]thiazol-2-yl)-2-(3-(sec-butylamino)propanamido)-6-isopropyl-6-methyl-4,5,6,7-tetrahydrothieno[2,3-c]pyridin-6-ium]
- IC50 ([1]; Table 2, compounds of FIG. 1): < 300 nM
- IC50 [2, 3]: 1000 to 10000 nM

SMILES: CCC(C)NCCC(=O)Nc1sc2c(c1-c1nc3cc4c(cc3s1)OCO4)CCN(C(C)C)C2 (stereo not shown) [Compound 563, N-(3-([1,3]Dioxolo[4′,5′:4,5]benzo[1,2-d]thiazol-6-yl)-6-isopropyl-4,5,6,7-tetrahydrothieno[2,3-c]pyridin-2-yl)-3-(sec-butylamino)propanamide]
- IC50 ([1]; Table 2, compounds of FIG. 1): < 300 nM
- IC50 [2, 3]: < 300 nM

SMILES: COC(=O)c1ccc2sc(-c3c(NC(C)=O)sc4c3CCNC4)nc2c1 [Compound 229, Methyl 2-(2-acetamido-4,5,6,7-tetrahydrothieno[2,3-c]pyridin-3-yl)benzo[d]thiazole-5-carboxylate]
- IC50 ([1]; Table 3, compounds of FIG. 2): 300 to 1000 nM
- IC50 [2, 4]: < 300 nM

SMILES: CC(C)NCCC(=O)Nc1sc2c(c1-c1nc3cc(-c4cnn(C)c4)ccc3s1)CCNC2 [compound 161]
- IC50 ([1]; Table 2, compounds of FIG. 1): < 300 nM
- IC50 [2, 3]: < 300 nM

SMILES: COCCNCCC(=O)Nc1sc2c(c1-c1nc3cc(F)ccc3s1)CC(C)NC2C (single isomer, unassigned) [Compound 544, N-(3-(5-Fluorobenzo[d]thiazol-2-yl)-5,7-dimethyl-4,5,6,7-tetrahydrothieno[2,3-c]pyridin-2-yl)-3-((2-methoxyethyl)amino)propanamide]
- IC50 ([1]; Table 2, compounds of FIG. 1): < 300 nM
- IC50 [2, 3]: < 300 nM

SMILES: CCC(C)NCCC(=O)Nc1sc2c(c1-c1nc3cc(-n4cnc(C)c4)ccc3s1)CCNC2 (stereo not shown) [compound 149]
- IC50 ([1]; Table 2, compounds of FIG. 1): < 300 nM
- IC50 [2, 3]: < 300 nM

SMILES: CC(C)N1CCc2c(sc(NC(=O)CCNCc3cnn(C)c3)c2-c2nc3ccccc3s2)C1 [Compound 100, N-(3-(benzo[d]thiazol-2-yl)-6-isopropyl-4,5,6,7-tetrahydrothieno[2,3-c]pyridin-2-yl)-3-(((1-methyl-1H-pyrazol-4-yl)methyl)amino)propanamide]
- IC50 ([1]; Table 2, compounds of FIG. 1): 300 to 1000 nM
- IC50 [2, 3]: < 300 nM

SMILES: CCC(C)NCCC(=O)Nc1sc2c(c1-c1nc3ccccc3s1)CCNC2 (stereo not shown) [Compound 124, N-(3-(benzo[d]thiazol-2-yl)-4,5,6,7-tetrahydrothieno[2,3-c]pyridin-2-yl)-3-(sec-butylamino)propanamide]
- IC50 ([1]; Table 2, compounds of FIG. 1): < 300 nM
- IC50 [2, 3]: < 300 nM

SMILES: CC(=O)Nc1sc2c(c1-c1nc3cc(N(C)C)ccc3s1)CCNC2 [Compound 230, N-(3-(5-(dimethylamino)benzo[d]thiazol-2-yl)-4,5,6,7-tetrahydrothieno[2,3-c]pyridin-2-yl)acetamide]
- IC50 ([1]; Table 3, compounds of FIG. 2): 1000 to 10000 nM
- IC50 [2, 4]: > 10000 nM

SMILES: CC[C@@H](C)NCCC(=O)Nc1sc2c(c1-c1nc3cc(C(F)(F)F)ccc3s1)CCNC2 [Compound 179, (R)-3-(sec-butylamino)-N-(3-(5-(trifluoromethyl)benzo[d]thiazol-2-yl)-4,5,6,7-tetrahydrothieno[2,3-c]pyridin-2-yl)propanamide]
- IC50 ([1]; Table 2, compounds of FIG. 1): < 300 nM
- IC50 [2, 3]: < 300 nM

SMILES: O=C(CCNCc1c[nH]cn1)Nc1sc2c(c1-c1nc3ccccc3s1)CCNC2 [Compound 190, 3-(((1H-imidazol-4-yl)methyl)amino)-N-(3-(benzo[d]thiazol-2-yl)-4,5,6,7-tetrahydrothieno[2,3-c]pyridin-2-yl)propanamide]
- IC50 ([1]; Table 2, compounds of FIG. 1): < 300 nM
- IC50 [2, 3]: < 300 nM

SMILES: CC[C@@H](C)NCCC(=O)Nc1sc2c(c1-c1nc3cc(C(F)(F)F)ccc3s1)CCN(C(C)C)C2 [Compound 574, (R)-3-(sec-butylamino)-N-(6-isopropyl-3-(5-(trifluoromethyl)benzo[d]thiazol-2-yl)-4,5,6,7-tetrahydrothieno[2,3-c]pyridin-2-yl)propanamide]
- IC50 ([1]; Table 2, compounds of FIG. 1): < 300 nM
- IC50 [2, 3]: < 300 nM

SMILES: COCCNCCC(=O)Nc1sc2c(c1-c1nc3cc(C4=CCNCC4)ccc3s1)CCNC2 [compound 497]
- IC50 ([1]; Table 2, compounds of FIG. 1): < 300 nM
- IC50 [2, 3]: < 300 nM

SMILES: CC(C)NCCC(=O)Nc1sc2c(c1-c1nc3cc(-c4ccncc4)ccc3s1)CCNC2 [Compound 160, 3-(Isopropylamino)-N-(3-(5-(pyridin-4-yl)benzo[d]thiazol-2-yl)-4,5,6,7-tetrahydrothieno[2,3-c]pyridin-2-yl)propanamide dihydrochloride]
- IC50 ([1]; Table 2, compounds of FIG. 1): 300 to 1000 nM
- IC50 [2, 3]: 300 to 1000 nM

SMILES: CC(C)NCCC(=O)Nc1sc2c(c1-c1nc3ccccc3s1)CC(C)NC2C (single isomer, unassigned) [Compound 198, N-(3-(benzo[d]thiazol-2-yl)-5,7-dimethyl-4,5,6,7-tetrahydrothieno[2,3-c]pyridin-2-yl)-3-(isopropylamino)propanamide]
- IC50 ([1]; Table 2, compounds of FIG. 1): 1000 to 10000 nM
- IC50 ([2]; Table 2, compounds of FIG. 1): < 300 nM

SMILES: CC(C)N1CCc2c(sc(NC(=O)CCNCc3cn[nH]c3)c2-c2nc3ccccc3s2)C1 [Compound 155, 3-(((1H-pyrazol-4-yl)methyl)amino)-N-(3-(benzo[d]thiazol-2-yl)-6-isopropyl-4,5,6,7-tetrahydrothieno[2,3-c]pyridin-2-yl)propanamide]
- IC50 ([1]; Table 2, compounds of FIG. 1): < 300 nM
- IC50 [2, 3]: < 300 nM

SMILES: CC(=O)Nc1sc2c(c1-c1nc3cc4c(cc3s1)OCO4)CCN(C(C)C)C2 [Compound 236, N-(3-([1,3]Dioxolo[4′,5′:4,5]benzo[1,2-d]thiazol-6-yl)-6-isopropyl-4,5,6,7-tetrahydrothieno[2,3-c]pyridin-2-yl)acetamide]
- IC50 ([1]; Table 3, compounds of FIG. 2): 300 to 1000 nM
- IC50 [2, 4]: 300 to 1000 nM

SMILES: CC(=O)Nc1sc2c(c1-c1nc3cc(C(F)(F)F)ccc3s1)CCNC2 [Compound 204, N-(3-(5-(trifluoromethyl)benzo[d]thiazol-2-yl)-4,5,6,7-tetrahydrothieno[2,3-c]pyridin-2-yl)acetamide]
- IC50 ([1]; Table 3, compounds of FIG. 2): 1000 to 10000 nM
- IC50 [2, 4]: 1000 to 10000 nM

SMILES: CC(C)NCCC(=O)Nc1sc2c(c1-c1nc3cc(-n4cnc(Cl)c4)ccc3s1)CCNC2 [compound 173]
- IC50 ([1]; Table 2, compounds of FIG. 1): < 300 nM
- IC50 [2, 3]: < 300 nM

SMILES: CC(C)NCCC(=O)Nc1sc2c(c1-c1nc3cc(C4=CCOCC4)ccc3s1)CCNC2 [compound 165]
- IC50 ([1]; Table 2, compounds of FIG. 1): < 300 nM
- IC50 [2, 3]: < 300 nM

SMILES: CC(=O)Nc1sc2c(c1-c1nc3ccccc3s1)CCC(N(C)C)C2 (stereo not shown) [Compound 223, N-(3-(benzo[d]thiazol-2-yl)-6-(dimethylamino)-4,5,6,7-tetrahydrobenzo[b]thiophen-2-yl)acetamide]
- IC50 ([1]; Table 3, compounds of FIG. 2): 1000 to 10000 nM
- IC50 [2, 4]: > 10000 nM

SMILES: CCC(C)NCCC(=O)Nc1sc2c(c1-c1nc3cc(C(F)(F)F)ccc3s1)CCNC2 (stereo not shown) [Compound 125, 3-(sec-butylamino)-N-(3-(5-(trifluoromethyl)benzo[d]thiazol-2-yl)-4,5,6,7-tetrahydrothieno[2,3-c]pyridin-2-yl) propanamide]
- IC50 ([1]; Table 2, compounds of FIG. 1): 300 to 1000 nM
- IC50 [2, 3]: 300 to 1000 nM

More lines, now with the values ahead:

- IC50 ([1]; Table 2, compounds of FIG. 1): < 300 nM
- IC50 [2, 3]: < 300 nM
SMILES: COCCNCCC(=O)Nc1sc2c(c1-c1nc3cc(-c4cnoc4)ccc3s1)CCNC2 [compound 481]

- IC50 ([1]; Table 2, compounds of FIG. 1): < 300 nM
- IC50 [2, 3]: < 300 nM
SMILES: COCCNCCC(=O)Nc1sc2c(c1-c1nc3cc(-c4ccc(C(=O)OC)nc4)ccc3s1)CCNC2 [compound 409]

- IC50 ([1]; Table 2, compounds of FIG. 1): < 300 nM
- IC50 [2, 3]: < 300 nM
SMILES: COCCNCCC(=O)Nc1sc2c(c1-c1nc3cc(-c4ccc(C#N)nc4)ccc3s1)CCNC2 [compound 405]

- IC50 ([1]; Table 2, compounds of FIG. 1): < 300 nM
- IC50 [2, 3]: < 300 nM
SMILES: COCCNCCC(=O)Nc1sc2c(c1-c1nc3c(C#N)cccc3s1)CCNC2 [compound 568]

- IC50 ([1]; Table 2, compounds of FIG. 1): < 300 nM
- IC50 [2, 3]: < 300 nM
SMILES: COCCNCCC(=O)Nc1sc2c(c1-c1nc3ccc(-c4cc(C)[nH]n4)cc3s1)CCNC2 [compound 355]

- IC50 ([1]; Table 2, compounds of FIG. 1): < 300 nM
- IC50 [2, 3]: < 300 nM
SMILES: COCCNCCC(=O)Nc1sc2c(c1-c1nc3cc(-c4ccc(C(=O)N5CCOCC5)cc4)ccc3s1)CCNC2 [compound 334]

- IC50 ([1]; Table 2, compounds of FIG. 1): < 300 nM
- IC50 [2, 3]: < 300 nM
SMILES: Cc1cn(-c2ccc3nc(-c4c(NC(=O)CCNC(C)C)sc5c4CCNC5)sc3c2)cn1 [compound 186]

- IC50 ([1]; Table 2, compounds of FIG. 1): < 300 nM
- IC50 [2, 3]: < 300 nM
SMILES: COCCNCCC(=O)Nc1sc2c(c1-c1nc3cc(-c4ccnc(N)c4)ccc3s1)CCNC2 [compound 433]

- IC50 ([1]; Table 2, compounds of FIG. 1): < 300 nM
- IC50 [2, 3]: < 300 nM
SMILES: CCN(CC)c1ccc(-c2ccc3sc(-c4c(NC(=O)CCNCCOC)sc5c4CCNC5)nc3c2)cc1 [compound 365]

- IC50 ([1]; Table 2, compounds of FIG. 1): < 300 nM
- IC50 [2, 3]: < 300 nM
SMILES: CC(C)NCCC(=O)Nc1sc2c(c1-c1nc3c(-c4cccnc4)cccc3s1)CCNC2 [compound 534]

- IC50 ([1]; Table 2, compounds of FIG. 1): < 300 nM
- IC50 [2, 3]: < 300 nM
SMILES: COCCNCCC(=O)Nc1sc2c(c1-c1nc3cc(-c4cnc(N)nc4)ccc3s1)CCNC2 [compound 345]

- IC50 ([1]; Table 2, compounds of FIG. 1): < 300 nM
- IC50 [2, 3]: < 300 nM
SMILES: COCCNCCC(=O)Nc1sc2c(c1-c1nc3ccc(-c4cn[nH]c4)cc3s1)CCNC2 [compound 339]

- IC50 ([1]; Table 2, compounds of FIG. 1): < 300 nM
- IC50 [2, 3]: < 300 nM
SMILES: COCCNCCC(=O)Nc1sc2c(c1-c1nc3cc(-c4cnc(OC)nc4)ccc3s1)CCNC2 [compound 404]

- IC50 ([1]; Table 2, compounds of FIG. 1): < 300 nM
- IC50 [2, 3]: < 300 nM
SMILES: COCCNCCC(=O)Nc1sc2c(c1-c1nc3cc(-n4cnc(C)c4)ccc3s1)CCNC2 [compound 180]

- IC50 ([1]; Table 2, compounds of FIG. 1): < 300 nM
- IC50 [2, 3]: < 300 nM
SMILES: COCCNCCC(=O)Nc1sc2c(c1-c1nc3cc(-c4cncc(OC)c4)ccc3s1)CCNC2 [compound 349]
